Results as given in PubChem BioAssay AID2060623 (Molecular Pharmacology Branch, DTP, NCI, 2025).

Test system: 227483-062-R1-J1-PDC complex spheroids with HUVEC/MSC, viability
Test: Anticancer human tumor 227483-062-R1-J1-PDC patient-derived pancreatic carcinoma cell line growth inhibition [CLK]
Settings: for IC50: curve of first compound; for viability, T/C: stronger effect = lower value
Outline: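 Multi-cell-type spheroids combined patient-derived tumor cells with HUVEC endothelial cells and human mesenchymal stem cells. Paired agents were dosed in half-log steps down from about clinical Cmax, or from 10 microM where Cmax was unknown.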

[1] = second compound 0.0316 µM, first compound 0.0316 µM
[2] = second compound 0.0316 µM, first compound 0.1 µM
[3] = second compound 0.0316 µM, first compound 0.316 µM
[4] = second compound 0.0316 µM, first compound 1 µM
[5] = second compound 0.0316 µM, first compound 3.16 µM
[6] = second compound 0.0316 µM, first compound 10 µM
[7] = second compound 0.1 µM, first compound 0.0316 µM
[8] = second compound 0.1 µM, first compound 0.1 µM
[9] = second compound 0.1 µM, first compound 0.316 µM
[10] = second compound 0.1 µM, first compound 1 µM
[11] = second compound 0.1 µM, first compound 3.16 µM
[12] = second compound 0.1 µM, first compound 10 µM
[13] = second compound 0.316 µM, first compound 0.0316 µM
[14] = second compound 0.316 µM, first compound 0.1 µM
[15] = second compound 0.316 µM, first compound 0.316 µM
[16] = second compound 0.316 µM, first compound 1 µM
[17] = second compound 0.316 µM, first compound 3.16 µM
[18] = second compound 0.316 µM, first compound 10 µM
[19] = second compound 1 µM, first compound 0.0316 µM
[20] = second compound 1 µM, first compound 0.1 µM
[21] = second compound 1 µM, first compound 0.316 µM
[22] = second compound 1 µM, first compound 1 µM
[23] = second compound 1 µM, first compound 3.16 µM
[24] = second compound 1 µM, first compound 10 µM
[25] = second compound 3.16 µM, first compound 0.0316 µM
[26] = second compound 3.16 µM, first compound 0.1 µM
[27] = second compound 3.16 µM, first compound 0.316 µM
[28] = second compound 3.16 µM, first compound 1 µM
[29] = second compound 3.16 µM, first compound 3.16 µM
[30] = second compound 3.16 µM, first compound 10 µM
[31] = second compound 10 µM, first compound 0.0316 µM
[32] = second compound 10 µM, first compound 0.1 µM
[33] = second compound 10 µM, first compound 0.316 µM
[34] = second compound 10 µM, first compound 1 µM
[35] = second compound 10 µM, first compound 3.16 µM
[36] = second compound 10 µM, first compound 10 µM
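Further: spheroids exposed to compounds for seven days before readout.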
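Wherever viability, T/C is given: percent of DMSO vehicle control luminescence as 100% viability.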

Structure (SMILES): C#Cc1c(F)ccc2cc(O)cc(-c3ncc4c(N5CC6CCC(C5)N6)nc(OCC56CCCN5CC(F)C6)nc4c3F)c12 (stereo not drawn) + CNC(=O)c1ccc(Nc2nc(OC3CCCC3)c3c(-c4ccc5nc(C)oc5c4)c[nH]c3n2)c(OC)c1
- IC50 (second compound 0.0316 µM): > 10 µM
- IC50 (second compound 0.1 µM): > 10 µM
- IC50 (second compound 0.316 µM): > 10 µM
- IC50 (second compound 1 µM): 5.62 µM
- IC50 (second compound 3.16 µM): 0.301 µM
- IC50 (second compound 10 µM): < 0.0316 µM
- viability, T/C [1]: 101%
- viability, T/C [2]: 110%
- viability, T/C [3]: 112%
- viability, T/C [4]: 131%
- viability, T/C [5]: 122%
- viability, T/C [6]: 87.7%
- viability, T/C [7]: 96.2%
- viability, T/C [8]: 120%
- viability, T/C [9]: 116%
- viability, T/C [10]: 111%
- viability, T/C [11]: 127%
- viability, T/C [12]: 68.5%
- viability, T/C [13]: 106%
- viability, T/C [14]: 97.7%
- viability, T/C [15]: 94.8%
- viability, T/C [16]: 100%
- viability, T/C [17]: 87.8%
- viability, T/C [18]: 58.9%
- viability, T/C [19]: 78.3%
- viability, T/C [20]: 71.9%
- viability, T/C [21]: 74.7%
- viability, T/C [22]: 61.9%
- viability, T/C [23]: 61.1%
- viability, T/C [24]: 41.6%
- viability, T/C [25]: 49.2%
- viability, T/C [26]: 57.4%
- viability, T/C [27]: 51%
- viability, T/C [28]: 41.9%
- viability, T/C [29]: 43.8%
- viability, T/C [30]: 33.5%
- viability, T/C [31]: 42.1%
- viability, T/C [32]: 38%
- viability, T/C [33]: 43.7%
- viability, T/C [34]: 34.6%
- viability, T/C [35]: 34.8%
- viability, T/C [36]: 28.3%

Structure (SMILES): C=C(F)C(=O)N1CCN(c2nc(OCC3CCCN3C)nc3c2CCN(c2cccc4cccc(Cl)c24)C3)CC1CC#N (stereo not drawn) + CNC(=O)c1ccc(Nc2nc(OC3CCCC3)c3c(-c4ccc5nc(C)oc5c4)c[nH]c3n2)c(OC)c1
- IC50 (second compound 0.0316 µM): 5.41 µM
- IC50 (second compound 0.1 µM): 5.79 µM
- IC50 (second compound 0.316 µM): 5.82 µM
- IC50 (second compound 1 µM): 3.78 µM
- IC50 (second compound 3.16 µM): 0.169 µM
- IC50 (second compound 10 µM): < 0.0316 µM
- viability, T/C [1]: 116%
- viability, T/C [2]: 98%
- viability, T/C [3]: 117%
- viability, T/C [4]: 121%
- viability, T/C [5]: 83.9%
- viability, T/C [6]: 11.4%
- viability, T/C [7]: 113%
- viability, T/C [8]: 118%
- viability, T/C [9]: 93.7%
- viability, T/C [10]: 103%
- viability, T/C [11]: 96.5%
- viability, T/C [12]: 8.35%
- viability, T/C [13]: 95.9%
- viability, T/C [14]: 84.2%
- viability, T/C [15]: 101%
- viability, T/C [16]: 102%
- viability, T/C [17]: 130%
- viability, T/C [18]: 3.32%
- viability, T/C [19]: 79.6%
- viability, T/C [20]: 57.4%
- viability, T/C [21]: 67.7%
- viability, T/C [22]: 69%
- viability, T/C [23]: 58.8%
- viability, T/C [24]: 0.65%
- viability, T/C [25]: 52.3%
- viability, T/C [26]: 47.2%
- viability, T/C [27]: 51.9%
- viability, T/C [28]: 41.6%
- viability, T/C [29]: 22%
- viability, T/C [30]: 0.26%
- viability, T/C [31]: 42.4%
- viability, T/C [32]: 43.3%
- viability, T/C [33]: 40.3%
- viability, T/C [34]: 29%
- viability, T/C [35]: 16.1%
- viability, T/C [36]: 0.39%

Structure (SMILES): C=CC(=O)N1CCN(c2nc(=O)n(-c3c(C)ccnc3C(C)C)c3nc(-c4c(O)cccc4F)c(F)cc23)C(C)C1 (stereo not drawn) + CNC(=O)c1ccc(Nc2nc(OC3CCCC3)c3c(-c4ccc5nc(C)oc5c4)c[nH]c3n2)c(OC)c1
- IC50 (second compound 0.0316 µM): > 10 µM
- IC50 (second compound 0.1 µM): > 10 µM
- IC50 (second compound 0.316 µM): > 10 µM
- IC50 (second compound 1 µM): > 10 µM
- IC50 (second compound 3.16 µM): 1.7 µM
- IC50 (second compound 10 µM): < 0.0316 µM
- viability, T/C [1]: 107%
- viability, T/C [2]: 92%
- viability, T/C [3]: 135%
- viability, T/C [4]: 103%
- viability, T/C [5]: 104%
- viability, T/C [6]: 108%
- viability, T/C [7]: 110%
- viability, T/C [8]: 101%
- viability, T/C [9]: 111%
- viability, T/C [10]: 118%
- viability, T/C [11]: 121%
- viability, T/C [12]: 107%
- viability, T/C [13]: 111%
- viability, T/C [14]: 87.9%
- viability, T/C [15]: 108%
- viability, T/C [16]: 104%
- viability, T/C [17]: 124%
- viability, T/C [18]: 98.6%
- viability, T/C [19]: 70.3%
- viability, T/C [20]: 57.6%
- viability, T/C [21]: 57.9%
- viability, T/C [22]: 63.5%
- viability, T/C [23]: 65.8%
- viability, T/C [24]: 52.3%
- viability, T/C [25]: 45.4%
- viability, T/C [26]: 63.2%
- viability, T/C [27]: 50.2%
- viability, T/C [28]: 51.6%
- viability, T/C [29]: 47.9%
- viability, T/C [30]: 26.6%
- viability, T/C [31]: 37.7%
- viability, T/C [32]: 35.5%
- viability, T/C [33]: 39.5%
- viability, T/C [34]: 44.5%
- viability, T/C [35]: 36%
- viability, T/C [36]: 18.6%

Structure (SMILES): CC(CO)NC(=O)c1cc(-c2ccc(Cl)cc2)nn(-c2cnn(C)c2)c1=O (stereo not drawn) + CNC(=O)c1ccc(Nc2nc(OC3CCCC3)c3c(-c4ccc5nc(C)oc5c4)c[nH]c3n2)c(OC)c1
- IC50 (second compound 0.0316 µM): > 10 µM
- IC50 (second compound 0.1 µM): > 10 µM
- IC50 (second compound 0.316 µM): > 10 µM
- IC50 (second compound 1 µM): > 10 µM
- IC50 (second compound 3.16 µM): < 0.0316 µM
- IC50 (second compound 10 µM): < 0.0316 µM
- viability, T/C [1]: 100%
- viability, T/C [2]: 80.3%
- viability, T/C [3]: 103%
- viability, T/C [4]: 99.4%
- viability, T/C [5]: 86.6%
- viability, T/C [6]: 84.7%
- viability, T/C [7]: 109%
- viability, T/C [8]: 102%
- viability, T/C [9]: 96.1%
- viability, T/C [10]: 91.4%
- viability, T/C [11]: 78.3%
- viability, T/C [12]: 82.6%
- viability, T/C [13]: 80.2%
- viability, T/C [14]: 90.7%
- viability, T/C [15]: 85.5%
- viability, T/C [16]: 77.5%
- viability, T/C [17]: 83.7%
- viability, T/C [18]: 70.8%
- viability, T/C [19]: 62.6%
- viability, T/C [20]: 68.2%
- viability, T/C [21]: 61.4%
- viability, T/C [22]: 54.1%
- viability, T/C [23]: 64.9%
- viability, T/C [24]: 56.9%
- viability, T/C [25]: 45.5%
- viability, T/C [26]: 50.3%
- viability, T/C [27]: 46%
- viability, T/C [28]: 45.5%
- viability, T/C [29]: 49%
- viability, T/C [30]: 38.3%
- viability, T/C [31]: 36.5%
- viability, T/C [32]: 41.8%
- viability, T/C [33]: 51.3%
- viability, T/C [34]: 37.3%
- viability, T/C [35]: 30.6%
- viability, T/C [36]: 36%
